Laboratory results: EP0115472A2, “Pyrrolidinon derivatives and process for their preparation” (CIBA-GEIGY AG, priority 1983, dated 1984)

System: Mäusen
Experiment: step down passive avoidance test (improvement of memory performance)
Type: in vivo, Mäuse
Conditions: Mus musculus, ip; mice, i.p. within 10 s after foot shock; retest after 24 h; compared with solvent controls; read-out: Dosis, bei der sich eine Verbesserung der Gedächtnisleistung zeigen lässt
Source text: Zur unmittelbaren Messung der Verbesserung der Gedächtnisleistung wird ein anderer passiver Vermeidungstest (step down passive avoidance test, Psychopharmacol. 63, 297-300 [1979]) verwendet: • Die Testvorrichtung besteht aus einer mit Tageslicht normal beleuchteten Box (50 x 50 x 50 cm) mit einem elektrisch leitenden Gitterrost, dessen Gitterstäbe (6 mm Durchmesser) in einem Abstand von jeweils 13 mm angeordnet sind. In der Mitte des Gitterrostes ist eine hölzerne Plattform (10 mm Höhe, 67 mm Durchmesser) angebracht, welche von einer Plastikröhre (20 cm hoch, 68 mm innerer Durchmesser) umgeben ist. Zur Durchführung des Trainings werden Gruppen von jeweils 30 männlichen Mäusen mit einem Körpergewicht von 20-22g verwendet, indem jeweils ein Tier auf die von der Plastikröhre umgebene Plattform gesetzt, nach 10 Sekunden die Plastikröhre entfernt und die Zeitdauer gemessen wird, welche das Tier zum Hinabsteigen und Berühren des Gitterrostes mit allen 4 Pfoten benötigt. Wenn alle 4 Pfoten den Gitterrost berühren, wird ein Fussschock (1 mA, 50 Hz, 1 Sekunde) verabreicht. Innerhalb von 10 Sekunden nach Verabreichung des Fussschocks werden die Testsubstanzen in Dosen von 3 mg/kg, 10 mg/kg und 30 mg/kg (für jede Dosis werden 30 Mäuse verwendet) als Lösung in physiologischer NaCl-Lösung oder deren Lösungsmittel (physiologische Natriumchloridlösung = Placebo) intraperitoneal verabreicht. […]

Q: With `NC(=O)CNC(=O)CNC(=O)CN1CCCC1=O` [N-[(2-Oxo-1-pyrrolidinyl)-acetyl]-glycyl-glycinamid] as the compound, how does the minimal effective dose read?
A: The minimal effective dose was 10 mg/kg.
